Key:
RS4;11 cells = experiment: Inhibitory effect on proliferation of RS4;11 cells (CCK-8); type: cell-based, human; details: Homo sapiens, RS4-11, 72 h
Experimental: Experimental Example 2: Inhibitory Effect of Compounds on Proliferation of RS4;11 Cells
RS4;11 cells (from Nanjing Cobioer) in logarithmic growth phase and good cell condition were added to a centrifuge tube and centrifuged at 1500 rpm for 3 min in a low speed centrifuge. The supernatant was discarded, and 5 mL of complete medium (RPMI basic medium+10 wt % fetal bovine serum (FBS)) was added using a pipette for cell resuspension. The cells were counted using a cell counter, diluted with complete medium to a cell density of 2×10^5 cells/mL, and added with an equivalent amount of RPMI basic medium to adjust the serum concentration to 5% and the cell density to 1×10^5 cells/mL for plate seeding. The cells were seeded on a 96-well plate at 100 μL/well using a pipettor, and incubated in an incubator at 37° C., 5% CO2 with saturated humidity. After 24 h of incubation, compounds were loaded using a nanoliter pipettor, 2 duplicate wells were set for each concentration, and cells without compound were used as negative controls. […] Inhibition rate (%)=(mean value of negative control group—mean value of experimental group)/(mean value of negative control group—mean value of blank group)×100%. A dose-response curve was fitted by four-parameter analysis, with the logarithm of compound concentration serving as abscissa and inhibition rate serving as ordinate, so that IC50 was calculated (FIG. 2).

BCL-2/BAK = target: T1, BCL-2/BAK (Homo sapiens, UniProt P10415); experiment: Screening on inhibitory activity for BCL-2/BAK binding (Cisbio HTRF kit)
T1 construct: purchased Cisbio
Experimental: 1.1 Screening on Inhibitory Activity for BCL-2/BAK Binding
500 nM Tag1-BCL-2 protein stock solution and 20 μM Tag2-BAK protein stock solution were diluted to 5 nM and 120 nM respectively with dilution buffer in kit (model: BCL-2/BAK (BH3) BINDING ASSAY KITS, from Cisbio). 5 μL of Tag1-BCL-2 protein diluent was added to each well, then different compounds dissolved with DMSO were added to the wells with a nanoliter pipettor, allowing the final compound concentrations to be 200 nM to 0.0488 nM (4-fold gradient for 7 concentrations in total). Blank control wells (without enzyme) and negative control wells (with enzyme, plus vehicle DMSO) were set, and 2 replicate wells were set. Finally, 5 μL of Tag2-BAK protein diluent was added to each well, and the mixture was mixed well by centrifugation and incubated at 25° C. for 15 min. 100× anti-Tag1-Eu^3+ and 100× anti-Tag2-XL665 were both diluted to 1× working concentration with the detection buffer in the kit. Anti-Tag1-Eu^3+ and anti-Tag2-XL665 were mixed well in a 1:1 ratio, and the mixture was added to wells at 5 μL/well, and incubated at 25° C. for 2 h or more. The plate was read using a PE Envision multi-functional microplate reader (excitation: […], emission: 665 nm) and IC50 (shown in table 1) was calculated by four-parameter fitting.

BCL-XL/BAK = target: T2, BCL-XL/BAK (Homo sapiens, UniProt Q07817); experiment: Screening on inhibitory activity for BCL-XL/BAK binding (Cisbio HTRF kit)
T2 construct: purchased Cisbio
Experimental: 1.2 Screening on Inhibitory Activity for BCL-XL/BAK Binding
300 nM Tag1-BCL-XL protein stock solution and 10 μM Tag2-BAK protein stock solution were diluted to 2 nM and 80 nM respectively with dilution buffer in kit (model: BCL-XL/BAK (BH3) BINDING ASSAY KITS, from Cisbio). 5 μL of Tag1-BCL-XL protein diluent was added to each well, then different compounds dissolved with DMSO were added to the wells with a nanoliter pipettor, allowing the final compound concentrations to be 2000 nM to 0.488 nM (4-fold gradient for 7 concentrations in total). Blank control wells (without enzyme) and negative control wells (with enzyme, plus vehicle DMSO) were set, and 2 replicate wells were set. Finally, 5 μL of Tag2-BAK protein diluent was added to each well, and the mixture was mixed well by centrifugation and incubated at 25° C. for 15 min. 100× anti-Tag1-Eu^3+ and 100× anti-Tag2-XL665 were both diluted to 1× working concentration with the detection buffer in the kit. Anti-Tag1-Eu^3+ and anti-Tag2-XL665 were mixed well in a 1:1 ratio, and the mixture was added to wells at 5 µL/well, and incubated at 25° C. for 2 h or more. The plate was read using a PE Envision multi-functional microplate reader (excitation: […], emission: 665 nm) and IC50 (shown in table 1) was calculated by four-parameter fitting.

T2 sequence (Q07817 whole entry, species assumed): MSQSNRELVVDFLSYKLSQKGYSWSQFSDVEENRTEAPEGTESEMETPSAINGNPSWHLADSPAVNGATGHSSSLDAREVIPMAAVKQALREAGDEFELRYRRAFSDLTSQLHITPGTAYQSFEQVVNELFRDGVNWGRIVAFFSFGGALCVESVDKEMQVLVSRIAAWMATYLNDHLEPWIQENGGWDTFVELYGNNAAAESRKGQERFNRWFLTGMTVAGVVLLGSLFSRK
T1 sequence (P10415 whole entry, species assumed): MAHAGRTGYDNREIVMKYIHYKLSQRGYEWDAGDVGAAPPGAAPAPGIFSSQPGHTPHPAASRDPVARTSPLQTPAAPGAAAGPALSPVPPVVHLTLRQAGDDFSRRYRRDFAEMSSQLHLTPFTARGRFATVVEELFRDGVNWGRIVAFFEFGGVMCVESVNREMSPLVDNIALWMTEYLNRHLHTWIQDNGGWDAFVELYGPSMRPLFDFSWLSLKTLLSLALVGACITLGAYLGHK

| IC50 (RS4;11 cells) [nM] | IC50 (BCL-2/BAK) [nM] | IC50 (BCL-XL/BAK) [nM] | Compound |
| --- | --- | --- | --- |
| 1.4 | 2.3 | 217 | CC1(C)CCC(CN2CCN(c3ccc(C(=O)NS(=O)(=O)c4ccc(NC[C@H]5CN(S(C)(=O)=O)CCO5)c([N+](=O)[O-])c4)c(Oc4cnc5[nH]ccc5c4)c3)CC2)=C(c2ccc(C(F)(F)F)cc2Cl)C1 [Compound 63-1, (S)-4-(4-{[2-(2-chloro-4-trifluoromethylphenyl)-4,4-dimethylcyclohex-1-enyl]methyl}-piperazin-1-yl)-N-({3-nitro-4-[(((4-(methylsulfonyl)morpholin)-2-yl)methyl)amino]phenyl}sulfonyl)-2-(1H-pyrrolo[2,3-b]pyridin-5-yloxy)-benzamide] |
| 0.9 | 3.9 | 175 | CC1(C)CCC(CN2CCN(c3ccc(C(=O)NS(=O)(=O)c4ccc(NCC5CN(C(=O)C(F)(F)F)CCO5)c([N+](=O)[O-])c4)c(Oc4cnc5[nH]ccc5c4)c3)CC2)=C(c2ccc(C(F)(F)F)cc2Cl)C1 (stereo not drawn) [Compound 52-1, 4-(4-{[2-(2-chloro-4-trifluoromethylphenyl)-4,4-dimethylcyclohex-1-enyl]methyl}-piperazin-1-yl)-N-({3-nitro-4-[((4-(2,2,2-trifluoroacetyl)morpholin-2-yl)methyl)amino]phenyl}sulfonyl)-2-(1H-pyrrolo[2,3-b]pyridin-5-yloxy)-benzamide] |
| 1.4 | 1.4 | 118 | CC1(C)CCC(CN2CCN(c3ccc(C(=O)NS(=O)(=O)c4ccc(NCC5CN(C=O)CCO5)c([N+](=O)[O-])c4)c(Oc4cnc5[nH]ccc5c4)c3)CC2)=C(c2ccc(C(F)(F)F)cc2Cl)C1 (stereo not drawn) [Compound 48-1, 4-(4-{[2-(2-chloro-4-trifluoromethylphenyl)-4,4-dimethylcyclohex-1-enyl]methyl}-piperazin-1-yl)-N-({3-nitro-4-[((N-formylmorpholin-2-yl)methyl)amino]phenyl}sulfonyl)-2-(1H-pyrrolo[2,3-b]pyridin-5-yloxy)-benzamide] |
| 3.3 | 2.6 | 273 | CC(C)C(=O)N1CCO[C@H](CNc2ccc(S(=O)(=O)NC(=O)c3ccc(N4CCN(CC5=C(c6ccc(C(F)(F)F)cc6Cl)CC(C)(C)CC5)CC4)cc3Oc3cnc4[nH]ccc4c3)cc2[N+](=O)[O-])C1 [Compound 66-1, (R)-4-(4-{[2-(2-chloro-4-trifluoromethylphenyl)-4,4-dimethylcyclohex-1-enyl]methyl}-piperazin-1-yl)-N-({3-nitro-4-[((4-isobutyrylmorpholin-2-yl)methyl)amino]phenyl}sulfonyl)-2-(1H-pyrrolo[2,3-b]pyridin-5-yloxy)-benzamide] |
| 3.9 | 3.5 | 322 | COC(=O)N1CCOC(CNc2ccc(S(=O)(=O)NC(=O)c3ccc(N4CCN(CC5=C(c6ccc(C(F)(F)F)cc6Cl)CC(C)(C)CC5)CC4)cc3Oc3cnc4[nH]ccc4c3)cc2[N+](=O)[O-])C1 (stereo not drawn) [Compound 75-1, 4-(4-{[2-(2-chloro-4-trifluoromethylphenyl)-4,4-dimethylcyclohex-1-enyl]methyl}-piperazin-1-yl)-N-({3-nitro-4-[((4-(methoxyformyl)morpholin-2-yl)methyl)amino]phenyl}sulfonyl)-2-(1H-pyrrolo[2,3-b]pyridin-5-yloxy)-benzamide] |
| 6.1 | 0.76 | 109 | CC1(C)CCC(CN2CCN(c3ccc(C(=O)NS(=O)(=O)c4ccc(NCCCC5CN(S(C)(=O)=O)CCO5)c([N+](=O)[O-])c4)c(Oc4cnc5[nH]ccc5c4)c3)CC2)=C(c2ccc(C(F)(F)F)cc2Cl)C1 (stereo not drawn) [Compound 71-1, 4-(4-{[2-(2-chloro-4-trifluoromethylphenyl)-4,4-dimethylcyclohex-1-enyl]methyl}-piperazin-1-yl)-N-({3-nitro-4-[(3-(4-(2-methylsulfonyl)morpholin-2-yl)propyl)amino]phenyl}sulfonyl)-2-(1H-pyrrolo[2,3-b]pyridin-5-yloxy)-benzamide] |
| 8.6 | 5.1 | 338 | CC1(C)CCC(CN2CCN(c3ccc(C(=O)NS(=O)(=O)c4ccc(NCC5CCCCO5)c([N+](=O)[O-])c4)c(Oc4cnc5[nH]ccc5c4)c3)CC2)=C(c2ccc(C(F)(F)F)cc2Cl)C1 (stereo not drawn) [Compound 14-1, 4-(4-{[2-(2-chloro-4-trifluoromethylphenyl)-4,4-dimethylcyclohex-1-enyl]methyl}-piperazin-1-yl)-N-({3-nitro-4-[(4-tetrahydro-2H-pyran-2-ylmethyl)amino]phenyl}sulfonyl)-2-(1H-pyrrolo[2,3-b]pyridin-5-yloxy)-benzamide] |
| 4.1 | 2.35 | 145 | CC(C)C(=O)N1CCO[C@@H](CNc2ccc(S(=O)(=O)NC(=O)c3ccc(N4CCN(CC5=C(c6ccc(C(F)(F)F)cc6Cl)CC(C)(C)CC5)CC4)cc3Oc3cnc4[nH]ccc4c3)cc2[N+](=O)[O-])C1 [Compound 62-1, (S)-4-(4-{[2-(2-chloro-4-trifluoromethylphenyl)-4,4-dimethylcyclohex-1-enyl]methyl}-piperazin-1-yl)-N-({3-nitro-4-[((4-isobutyrylmorpholin-2-yl)methyl)amino]phenyl}sulfonyl)-2-(1H-pyrrolo[2,3-b]pyridin-5-yloxy)-benzamide] |

From patent US20250257064A1, “TRIFLUOROMETHYL-SUBSTITUTED SULFONAMIDE AS BCL-2-SELECTIVE INHIBITOR” (Chia Tai Tianqing Pharmaceutical Group Co., Ltd., priority 2018, published 2025)
